Values of other authors, collected in patent publication US20230364004A1, “STABLE COMPOSITIONS CONTAINING A CANNABINOID” (ANGROW COMPANY LIMITED, priority 2022, published 2023).

Conditions: within 24 hours, simulated physiological condition (PH 7.4 and 37° C.)

C=C(C)[C@@H]1CCC(C)=C[C@H]1c1c(O)cc(CCCCC)cc1O [CBD, cannabidiol]
CBD degraded: 10%
